Assay results from article PMC11134331, “Cell-active small molecule inhibitors validate the SNM1A DNA repair nuclease as a cancer target” (Chemical Science, 2024).

Columns and labels:
solubility = type: physicochemical
SNM1A [1] = molecular target: T1, SNM1A (Homo sapiens, UniProt Q6PJP8); experiment: real-time fluorescence-based nuclease assay, SNM1A; type: biochemical; parameters: DNA encoding for the MBL and β-CASP domains of SNM1A (aa 676–1040) was cloned into the baculovirus transfer vector pFB-LIC-Bse; inferred from vector pFB-LIC-Bse and the IMAC purification; made in house; host or cells: Sf9 insect cells (baculovirus); details: for IC50: read-out: SNM1A IC50
T1 sequence (Q6PJP8 676-1040): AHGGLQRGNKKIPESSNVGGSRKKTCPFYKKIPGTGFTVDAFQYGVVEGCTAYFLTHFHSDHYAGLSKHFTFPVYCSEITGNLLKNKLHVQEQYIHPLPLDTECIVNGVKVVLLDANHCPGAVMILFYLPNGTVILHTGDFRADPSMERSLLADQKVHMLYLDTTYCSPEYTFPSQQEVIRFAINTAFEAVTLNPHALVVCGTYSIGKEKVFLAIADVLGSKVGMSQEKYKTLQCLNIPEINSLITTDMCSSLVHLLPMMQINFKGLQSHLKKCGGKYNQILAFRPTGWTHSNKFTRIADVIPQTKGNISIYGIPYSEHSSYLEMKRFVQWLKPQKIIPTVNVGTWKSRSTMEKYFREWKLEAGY
Description: In brief, the fluorescence-based nuclease assay utilises a chemically modified 20-nucleotide ssDNA substrate with a fluorescein isothiocyanate (FITC) derived 5′-group and an internal black-hole-quencher-1 (BHQ-1), located eight nucleotides distal to the fluorescein group. In the intact substrate the BHQ-1 suppresses fluorescence, however, exonucleolytic digestion of the substrate from the 5′ end by SNM1A uncouples the BHQ-1 and FITC moieties (see Fig. 1D). Spectra were measured every 140 seconds with an increase in fluorescence indicating enzymatic activity by SNM1A (concentration: 0.1 nM).
(§1) Fluorescence-based nuclease digestion SNM1A–C assays were performed as described.[30,45] In the case of SNM1A and SNM1B, a 20-mer oligonucleotide with a 5′ FITC-conjugated-T and an internal BHQ-1 (black hole quencher) conjugated-T, eight nucleotides distal (3′) to the fluor was utilised; whereas for SNM1C a 20-mer oligonucleotide with a 5′ FITC-conjugated-T and a 3′ BHQ-1(black hole quencher) was used to capture all possible endonucleolytic incisions. Reactions (25 μL) were performed in 384 well microplates in nuclease buffer (20 mM HEPES-KOH pH 7.5, 50 mM KCl, 10 mM MgCl2, 0.5 mM TCEP, 0.05% (v/v) Triton-X, 0.1 mg mL^−1 BSA, 5% (v/v) glycerol) with SNM1A/B/C (0.1 nM SNM1A, 0.5 nM SNM1B and 1 nM SNM1C) as indicated. Proteins were incubated for 10 min at RT with the stated compound where applicable, before the reaction was initiated with the addition of 10 nM DNA substrate. […] Fluorescence spectra were measured every 140 s, for 35 min, at 37 °C. The fluorescence intensity of each well was plotted against compound concentration and fitted using a log (inhibitor) response curve using GraphPad Prism software (GraphPad Software, Inc., La Jolla, CA, USA).

SNM1A [2] = molecular target: T1, SNM1A; experiment: gel-based nuclease assay, SNM1A; type: biochemical; parameters: DNA encoding for the MBL and β-CASP domains of SNM1A (aa 676–1040) was cloned into the baculovirus transfer vector pFB-LIC-Bse; inferred from vector pFB-LIC-Bse and the IMAC purification; made in house; host or cells: Sf9 insect cells (baculovirus); details: 0.5 nM SNM1A
Description: (§2) To validate the inhibition of SNM1A, SNM1B, and SNM1C observed in the fluorescence-based screening assays, we then performed gel-based assays using 3′ terminally-labelled oligonucleotide substrates that enable both quantitative and qualitative (visual) assessment of the pattern of inhibition, for a subset of compounds. Importantly, whereas the fluorescence-based assay measures a single hydrolytic event at the substrate terminus, the gel-based nuclease assay informs on the pattern of digestion of the entire 51-mer substrate DNA over time.
(§3) Standard exonuclease assays were carried out in a 10 μL final volume containing 20 mM HEPES-KOH, pH 7.5, 50 mM KCl, 0.5 mM TCEP, 10 mM MgCl2, 0.05% (v/v) Triton X-100, 5% (v/v) glycerol, and SNM1 proteins as indicated. Inhibitors were dissolved in DMSO and diluted immediately prior to the reaction in the above buffer. Inhibitors were serially diluted two-fold from 100 μM. The DMSO concentration was kept constant at 0.1% (v/v) in the final reaction mixture. Inhibitors were incubated with the indicated SNM1 enzyme for 10 minutes at room temperature; reactions were initiated by addition of 10 nM DNA substrate and incubated at 37 °C for 20 min. Reactions were quenched by addition of 5 μL stop solution (95% formamide, 10 mM EDTA, 0.25% (v/v) xylene cyanol, 0.25% (v/v) bromophenol blue) and heated at 95 °C for 3 min. Reactions were analysed by 20% denaturing polyacrylamide gel electrophoresis solution of 19 : 1 acrylamide:bis-acrylamide, BioRad and 7 M urea (Sigma Aldrich) in 1 × TBE (Tris-borate EDTA) buffer. Electrophoresis was carried out at 525 V for 75 minutes; gels were subsequently fixed for 60 minutes in a 50% (v/v) methanol, 10% (v/v) acetic acid solution, and dried at 80 °C for two hours under vacuum. Dried gels were exposed to a Kodak Phosphor imager screen and scanned using a Typhoon 9500 instrument (GE Healthcare), scanned images were quantified using ImageJ.

[3] = system: U2OS (osteosarcoma) cells; experiment: clonogenic survival assay, U2OS cells; type: cell-based, human; details: for cell death as single agent: U2OS, 50 μM compound
Description: Clonogenic assays were performed in 10 cm tissue culture dishes (for RPE-1 cells, U2OS cells and derived clones). Cells (1000 per dish) were seeded in complete media (10 mL) and allowed to attach overnight, then treated with cisplatin or cisplatin plus inhibitor for the times stated. Following treatments, cells were allowed to grow and form colonies for 10 days. Colonies formed were stained with Coomassie R250 (Sigma) and counted on a COLCount Colony Counter (Oxford Optronix). All experiments represent the mean (±SEM) of at least three biological repeats of duplicate dishes/flasks for each treatment.

SNM1B = molecular target: T2, SNM1B (Homo sapiens, UniProt Q9H816); experiment: gel-based nuclease assay, SNM1B; type: biochemical; details: 1 nM SNM1B
T2 construct: for the MBL and β-CASP domains of SNM1B (aa 1–335) into baculoviral expression vectors pFB-CT10HF-LIC; made in house; host or cells: Sf9 insect cells (baculovirus)
T2 sequence (Q9H816 1-335): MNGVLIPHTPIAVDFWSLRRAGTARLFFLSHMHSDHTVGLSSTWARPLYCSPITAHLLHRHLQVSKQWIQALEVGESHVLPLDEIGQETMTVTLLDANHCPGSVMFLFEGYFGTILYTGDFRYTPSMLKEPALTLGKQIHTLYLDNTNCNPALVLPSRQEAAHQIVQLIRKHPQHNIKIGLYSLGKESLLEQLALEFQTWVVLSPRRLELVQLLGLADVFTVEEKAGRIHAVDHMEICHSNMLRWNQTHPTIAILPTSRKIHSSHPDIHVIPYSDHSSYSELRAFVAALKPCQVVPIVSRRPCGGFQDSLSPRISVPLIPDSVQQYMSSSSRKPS
Description: as §2, §3
Suppl. Figure 10. Increasing concentrations (as indicated, in μM) of compounds incubated with 1 nM SNM1B or 2.5 nM SNM1C (room temperature, 10 min), before initiating nuclease reaction by addition of ssDNA (37 °C, 20 min). Products were analysed by 20% denaturing PAGE. Gels are representative versions from a minimum of three independent experimental repeats.
(1 picture or pasted object on this page, not shown here)

SNM1C [4] = molecular target: T3, SNM1C (Homo sapiens, UniProt Q96SD1); experiment: real-time fluorescence-based nuclease assay, SNM1C; type: biochemical
T3 construct: for the MBL and β-CASP domains of SNM1C (aa 1–362) into the baculovirus expression vector pBF-6HZB; made in house; host or cells: Sf9 insect cells (baculovirus)
T3 sequence (Q96SD1 1-362): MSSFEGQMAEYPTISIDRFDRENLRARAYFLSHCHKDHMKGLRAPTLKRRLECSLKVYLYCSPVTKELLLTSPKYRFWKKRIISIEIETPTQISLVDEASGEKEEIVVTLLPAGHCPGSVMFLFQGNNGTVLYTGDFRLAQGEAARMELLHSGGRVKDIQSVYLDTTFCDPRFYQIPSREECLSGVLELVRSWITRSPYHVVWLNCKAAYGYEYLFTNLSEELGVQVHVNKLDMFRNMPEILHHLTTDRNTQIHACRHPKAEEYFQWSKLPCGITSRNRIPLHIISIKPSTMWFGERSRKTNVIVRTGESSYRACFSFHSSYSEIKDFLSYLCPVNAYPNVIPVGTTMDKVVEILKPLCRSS
Description: There is structural similarity between SNM1A, SNM1B, and SNM1C and major mechanistic features are likely conserved between the three nucleases. We therefore tested (13) and other hydroxamic acid analogues for inhibition of SNM1B and SNM1C. […] Note that the substrate utilised for the high-throughput fluorescence based and subsequent SNM1A and SNM1B assays differed slightly for SNM1C reflecting its (primarily) endonucleolytic, rather than exonucleolytic, activity (ESI Fig. 9 ^†).
as §1

SNM1C [5] = molecular target: T3, SNM1C; experiment: gel-based nuclease assay, SNM1C; type: biochemical
Description: as §2, §3
Suppl. Figure 10. […] Products were analysed by 20% denaturing PAGE. […]

[6] = real-time fluorescence-based nuclease assay, resynthesised compounds

With O=c1[nH]c2cnc3ccc(Cl)cc3c2[nH]c1=O [compound 2] as the compound, how does the “solubility” value (solubility) read?
Its value is “poor solubility”.

What about the IC50 (SNM1A [1]; [6]) of the same compound?
Its IC50 is 2 µM.

With COc1cc2c3c(cccc3c1)C(=O)N(O)C2=O [compound 3] as the compound, how does the “solubility” value (solubility) read?
Its value is “poor solubility”.

And the IC50 (SNM1A [1]; [6])?
The IC50 was 2.9 µM.

For C=CCNc1nc(N[C@@H](CC(C)C)C(=O)OC)c2cc(Cl)ccc2n1 [compound 7], which IC50 (SNM1A [1]; [6]) is on record?
Its IC50 is over 1000 µM.

Which IC50 (SNM1A [1]; [6]) does the source give for C=CCNc1nc(N[C@@H](CC(C)C)C(N)=O)c2cc(Cl)ccc2n1 [compound 8] here?
The IC50 was over 1000 µM.

With C=CCNc1nc(N[C@H](CO)CC(C)C)c2cc(Cl)ccc2n1 [compound 9] as the compound, how does the IC50 (SNM1A [1]; [6]) read?
Its IC50 is over 1000 µM.

Which results are given for C=CCNc1nc(NC(CC(C)C)C(=O)NO)c2cc(Cl)ccc2n1 (stereo not shown) [compound 10]?
increase in SNM1A potency compared to K1 (6) (SNM1A [1]; fluorescence-based assay): 3 fold; IC50 (SNM1A [1]; [6]): 33 µM

For C=CCNc1nc(NCC(=O)NO)c2cc(Cl)ccc2n1 [compound 11], which IC50 (SNM1A [1]; [6]) is on record?
Its IC50 is 17 µM.

For C=CCNc1nc(N[C@H](C)C(=O)NO)c2cc(Cl)ccc2n1 [compound 12], which “inhibition of SNM1A in gel-based assay” value (SNM1A [2]) is on record?
Its value is “good inhibition”.

What about the “effect on cisplatin cytotoxicity” value ([3]; U2OS wild-type, 50 μM compound 20 hours pre-treatment, 0–15 μM cisplatin) of the same compound?
Its value is “potentiation of cisplatin cytotoxicity”.

And the “cell death as single agent” value [3]?
Its value is at most 10%.

And the “inhibition of SNM1B in gel-based assay” value (SNM1B)?
Its value is “good inhibition”.

What about the IC50 (SNM1A [1]; [6]) of the same compound?
The IC50 was 2.2 µM.

What does the source list for C=CCNc1nc(N[C@@H](C)C(=O)NO)c2cc(Cl)ccc2n1 [compound 13]?
inhibition of SNM1A in gel-based assay (SNM1A [2]): good inhibition; cell death as single agent [3]: ≤ 10%; inhibition of SNM1B in gel-based assay (SNM1B): good inhibition; IC50 (SNM1A [1]; [6]): 0.8 µM

With C=CCNc1nc(NC(CO)C(=O)NO)c2cc(Cl)ccc2n1 (stereo not shown) [compound 14] as the compound, how does the IC50 (SNM1A [1]; [6]) read?
Its IC50 is 4.1 µM.

For C[C@H](Nc1nc(N2CCOCC2)nc2ccc(Cl)cc12)C(=O)NO [compound 15], which IC50 (SNM1A [1]; [6]) is on record?
The IC50 was 42 µM.

Which results are given for C[C@H](Nc1nc(NCc2ccccc2)nc2ccc(Cl)cc12)C(=O)NO [compound 16]?
IC50 (SNM1C [4]; real-time fluorescence-based nuclease assay): 1.1 µM; IC50 (SNM1A [1]; [6]): 34 µM

Which IC50 (SNM1A [1]; [6]) does the source give for CCCN(C)c1nc(N[C@@H](C)C(=O)NO)c2cc(Cl)ccc2n1 [compound 17] here?
The IC50 was 20 µM.

Which results are given for CCN(CC)c1nc(N[C@@H](C)C(=O)NO)c2cc(Cl)ccc2n1 [compound 18]?
selectivity among SNM1A, SNM1B, SNM1C (SNM1C [4]; fluorescence-based assays): only potent against SNM1C; IC50 (SNM1A [1]; [6]): > 100 µM

For C=CCNC(=O)c1nc(N[C@@H](C)C(=O)NO)c2ccccc2n1 [compound 20], which “inhibition of SNM1A in gel-based assay” value (SNM1A [2]) is on record?
The value was “good inhibition”.

What about the “inhibition of SNM1B in gel-based assay” value (SNM1B) of the same compound?
Its value is “good inhibition”.

And the “decrease in SNM1A potency compared to 13” value (SNM1A [1]; fluorescence-based assay)?
The value was 100 fold.

And the IC50 (SNM1A [1]; [6])?
The IC50 was 84 µM.

For CCOc1nc(N[C@@H](C)C(=O)NO)c2cc(Cl)ccc2n1 [compound 21], which IC50 (SNM1A [1]; [6]) is on record?
Its IC50 is 67 µM.

What about the “concentration giving complete inhibition of SNM1C digestion” value (SNM1C [5]) of the same compound?
The value was about 6 µM.

And the “inhibition of SNM1C in gel-based assay” value (SNM1C [5]; 2.5 nM SNM1C)?
Its value is “clearly inhibits the nuclease activity of SNM1C”.

Which IC50 (SNM1A [1]; [6]) does the source give for C[C@H](Nc1nc(N(C)C)nc2ccc(Cl)cc12)C(=O)NO [compound 22] here?
The IC50 was 11 µM.

With C[C@H](Nc1nc(N(C)C)nc2ccc(F)cc12)C(=O)NO [compound 23] as the compound, how does the IC50 (SNM1A [1]; [6]) read?
The IC50 was 13 µM.

For COc1ccc2nc(N(C)C)nc(N[C@@H](C)C(=O)NO)c2c1 [compound 24], which IC50 (SNM1A [1]; [6]) is on record?
The IC50 was 74 µM.

For “AZ1353160 [compound 4, reference compound]”, which “SNM1A IC50” value (SNM1A [1]; [6]) is on record?
The value was “an IC50 value could not be calculated”.
